The conditions of data set [1]: Liquid; for mass density: 298.15 K, 101.33 kPa, Pycnometric method; for Normal boiling temperature: Ebulliometric method (Recirculating still).
A short description of data set [2]: refractive index (Na D-line) (dimensionless). The note with it: 298.15 K; 101.33 kPa; Liquid; Standard Abbe refractometry.

± gives the expanded uncertainty stated by the source.

Turning to `CCC(C)OC(C)=O` (stereo not given) [1-methylpropyl ethanoate], in data set [1], the mass density is 863.8 ± 0.8 kg/m3 and the Normal boiling temperature amounted to 111.97 ± 0.2 °C. In addition, the refractive index in data set [2] was 1.3872 ± 0.0007.
For `CC(C)CO` [2-methyl-1-propanol] the same measures were 797.4 ± 0.7 kg/m3, 107.68 ± 0.2 °C and 1.3931 ± 0.0007.
Regarding `CC(C)(C)O` [2-methylpropan-2-ol], the Normal boiling temperature in data set [1] was 82.36 ± 0.2 °C. Besides, the refractive index in data set [2] is on record as 1.3857 ± 0.0007.
Regarding `CCCCO` [butan-1-ol], the mass density in data set [1] came to 805.8 ± 0.7 kg/m3. Also, the refractive index in data set [2] is 1.397 ± 0.0007.

Usually mass density stands for the mass of a sample divided by its volume. One may read the refractive index as a measure of how strongly the sample bends light.

(Values after the NIST ThermoML archive (doi:10.1021/acs.jced.6b00471).)
